Article PMC6789782, “Safety Pharmacological Evaluation of the Coffee Component, Caffeoylquinic Acid, and Its Metabolites, Using Ex Vivo and In Vitro Profiling Assays” (Pharmaceuticals, 2019)
Like-named read-outs stand apart in the source and are kept apart here.

Columns and labels:
[1] = tested on: ileum isolated from guinea pig; assay: In vitro Magnus assay, ileum; conditions: 100 µM; ± SEM; p < 0.05
Description: (§1) Guinea pigs (Japan SLC, Inc., Shizuoka, Japan) were anesthetized with pentobarbital sodium (30–50 mg/kg, i.p.) and the stomach fundi, ileums, and colons were dissected after being exsanguinated. Tissues were immediately placed in Tyrode’s solution containing NaCl 136.9 mM, KCl 2.7 mM, MgCl2.6H2O 1.2 mM, CaCl2.2H2O 2.0 mM, NaHCO3 11.9 mM, and D(+)-glucose 5.6 mM, and flushed for luminal content removal. Segments of approximately 2 cm were cut from each tissue and placed in an organ bath containing Tyrode’s solution aerated with O2:CO2 (95:5) at 32 °C. The tissue segments were connected to an isometric transducer (load, 1.0 g) to record the contractions (Nihon Kohden Corporation, Tokyo, Japan).
(§2) Maximum recording period for one condition was 20 min, and the test solution was exchanged when no effect was detected within 3 min. […] The concentration of acetylcholine was set based on preliminary experiments.

Adrenergic α1A = biological target: T1, Adrenergic α1A (Rattus norvegicus, UniProt P43140); assay: In vitro profiling, binding assay
T1 sequence (P43140 1-466): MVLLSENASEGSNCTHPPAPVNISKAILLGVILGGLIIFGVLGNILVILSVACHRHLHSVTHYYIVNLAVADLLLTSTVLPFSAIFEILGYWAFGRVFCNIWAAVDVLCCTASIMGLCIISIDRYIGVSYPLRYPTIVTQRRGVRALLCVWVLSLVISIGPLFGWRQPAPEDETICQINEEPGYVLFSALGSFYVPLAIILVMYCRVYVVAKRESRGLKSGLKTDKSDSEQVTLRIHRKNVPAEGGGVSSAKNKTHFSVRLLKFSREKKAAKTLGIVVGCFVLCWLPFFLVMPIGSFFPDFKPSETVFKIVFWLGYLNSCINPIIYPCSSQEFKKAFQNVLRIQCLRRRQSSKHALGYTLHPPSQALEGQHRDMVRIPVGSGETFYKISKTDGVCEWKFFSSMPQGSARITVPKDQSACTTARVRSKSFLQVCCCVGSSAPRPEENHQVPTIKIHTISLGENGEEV
Description: (§3) Binding and functional assays of CGAs with the proteins known to be pharmacological targets related to the CVS, CNS, and GI functions were conducted. […] In the binding assay, we measured the radiation activity of the solution containing filtered proteins that bound to the tested compound or high-affinity ligand, while in the functional assays, we measured the reaction product. The ability of the test compound to interact with the tested targets was measured as the inhibition of ligand binding to the target or reaction product production (% inhibition).

hERG potassium channel = hERG potassium channel (Homo sapiens, UniProt Q12809); assay: In vitro profiling, binding assay
Chain of hERG potassium channel (Q12809 whole entry): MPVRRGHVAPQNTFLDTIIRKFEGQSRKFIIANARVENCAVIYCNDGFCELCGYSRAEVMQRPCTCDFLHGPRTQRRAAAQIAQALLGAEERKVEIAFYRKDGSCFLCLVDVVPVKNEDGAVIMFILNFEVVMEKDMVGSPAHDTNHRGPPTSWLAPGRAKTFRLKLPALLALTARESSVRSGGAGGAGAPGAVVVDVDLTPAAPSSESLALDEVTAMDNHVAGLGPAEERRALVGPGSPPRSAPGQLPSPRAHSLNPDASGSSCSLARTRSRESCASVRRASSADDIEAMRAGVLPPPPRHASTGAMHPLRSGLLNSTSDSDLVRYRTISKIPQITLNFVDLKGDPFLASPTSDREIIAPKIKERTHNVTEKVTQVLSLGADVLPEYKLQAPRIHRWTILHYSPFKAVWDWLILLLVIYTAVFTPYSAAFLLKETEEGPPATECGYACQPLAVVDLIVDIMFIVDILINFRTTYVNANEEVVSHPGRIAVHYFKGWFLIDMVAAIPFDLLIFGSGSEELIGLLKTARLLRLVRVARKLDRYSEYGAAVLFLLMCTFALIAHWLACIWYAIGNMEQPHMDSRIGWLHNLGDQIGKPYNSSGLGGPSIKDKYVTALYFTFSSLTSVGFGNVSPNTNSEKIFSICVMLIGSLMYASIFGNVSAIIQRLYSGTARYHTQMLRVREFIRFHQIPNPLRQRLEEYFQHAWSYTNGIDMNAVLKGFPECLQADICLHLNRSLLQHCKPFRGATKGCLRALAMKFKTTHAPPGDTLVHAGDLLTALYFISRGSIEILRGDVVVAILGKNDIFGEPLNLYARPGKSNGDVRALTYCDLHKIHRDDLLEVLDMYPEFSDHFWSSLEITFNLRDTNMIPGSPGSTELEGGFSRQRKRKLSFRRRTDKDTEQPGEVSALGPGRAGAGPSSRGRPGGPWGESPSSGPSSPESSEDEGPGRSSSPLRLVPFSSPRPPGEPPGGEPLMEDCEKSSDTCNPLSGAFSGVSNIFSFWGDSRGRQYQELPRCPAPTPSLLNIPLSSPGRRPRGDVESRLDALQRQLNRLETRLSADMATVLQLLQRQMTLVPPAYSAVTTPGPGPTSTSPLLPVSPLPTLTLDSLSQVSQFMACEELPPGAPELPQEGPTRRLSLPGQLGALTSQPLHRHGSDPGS
Description: as §3

Muscarinic M3 = Muscarinic M3 (Homo sapiens, UniProt P20309); assay: In vitro profiling, binding assay
Chain of Muscarinic M3 (P20309 whole entry): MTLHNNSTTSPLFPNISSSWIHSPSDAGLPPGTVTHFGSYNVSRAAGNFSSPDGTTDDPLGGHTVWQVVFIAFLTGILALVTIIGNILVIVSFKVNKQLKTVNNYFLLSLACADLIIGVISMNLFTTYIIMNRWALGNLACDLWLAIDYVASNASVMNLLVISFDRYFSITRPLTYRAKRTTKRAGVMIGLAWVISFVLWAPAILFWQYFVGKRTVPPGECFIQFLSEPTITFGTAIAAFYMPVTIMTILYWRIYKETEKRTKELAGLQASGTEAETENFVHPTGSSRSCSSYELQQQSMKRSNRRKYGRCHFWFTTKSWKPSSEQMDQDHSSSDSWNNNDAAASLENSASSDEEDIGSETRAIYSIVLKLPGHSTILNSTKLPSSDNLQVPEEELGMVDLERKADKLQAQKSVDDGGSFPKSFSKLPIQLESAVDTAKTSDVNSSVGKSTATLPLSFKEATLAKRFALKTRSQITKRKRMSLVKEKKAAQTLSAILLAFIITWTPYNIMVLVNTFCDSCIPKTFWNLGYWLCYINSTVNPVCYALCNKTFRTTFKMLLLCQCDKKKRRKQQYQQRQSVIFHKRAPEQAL
Description: as §3

Adrenergic α2A = biological target: T2, Adrenergic α2A (Homo sapiens, UniProt P08913); assay: In vitro profiling, binding assay
T2 sequence (P08913 1-465): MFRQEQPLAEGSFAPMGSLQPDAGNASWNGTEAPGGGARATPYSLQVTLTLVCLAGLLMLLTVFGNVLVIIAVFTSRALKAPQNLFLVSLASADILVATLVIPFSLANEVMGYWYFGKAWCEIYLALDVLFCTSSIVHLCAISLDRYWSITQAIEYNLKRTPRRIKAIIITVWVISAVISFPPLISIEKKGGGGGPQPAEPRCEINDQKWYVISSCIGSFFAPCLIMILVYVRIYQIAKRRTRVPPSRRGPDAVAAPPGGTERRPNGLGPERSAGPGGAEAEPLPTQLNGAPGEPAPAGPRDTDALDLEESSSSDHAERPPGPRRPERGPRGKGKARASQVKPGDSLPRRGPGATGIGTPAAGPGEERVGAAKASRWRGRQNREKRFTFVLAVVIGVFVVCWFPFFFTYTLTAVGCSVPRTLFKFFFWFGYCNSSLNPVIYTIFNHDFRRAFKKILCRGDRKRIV
Description: as §3

Adrenergic β2 = Adrenergic β2 (Homo sapiens, UniProt P07550); assay: In vitro profiling, binding assay
Chain of Adrenergic β2 (P07550 whole entry): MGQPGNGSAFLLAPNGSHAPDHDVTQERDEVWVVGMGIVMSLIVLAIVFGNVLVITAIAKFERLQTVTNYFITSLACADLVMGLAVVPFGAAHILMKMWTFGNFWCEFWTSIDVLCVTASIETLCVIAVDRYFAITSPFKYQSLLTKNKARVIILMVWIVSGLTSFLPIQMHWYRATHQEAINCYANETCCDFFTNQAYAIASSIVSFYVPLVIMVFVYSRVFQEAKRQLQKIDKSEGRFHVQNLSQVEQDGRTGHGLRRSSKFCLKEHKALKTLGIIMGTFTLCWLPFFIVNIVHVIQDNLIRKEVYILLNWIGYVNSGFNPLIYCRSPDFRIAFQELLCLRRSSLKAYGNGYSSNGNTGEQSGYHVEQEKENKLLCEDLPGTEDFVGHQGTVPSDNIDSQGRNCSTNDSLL
Description: as §3

Vasopressin V1A = Vasopressin V1A (Homo sapiens, UniProt P37288); assay: In vitro profiling, binding assay
Chain of Vasopressin V1A (P37288 whole entry): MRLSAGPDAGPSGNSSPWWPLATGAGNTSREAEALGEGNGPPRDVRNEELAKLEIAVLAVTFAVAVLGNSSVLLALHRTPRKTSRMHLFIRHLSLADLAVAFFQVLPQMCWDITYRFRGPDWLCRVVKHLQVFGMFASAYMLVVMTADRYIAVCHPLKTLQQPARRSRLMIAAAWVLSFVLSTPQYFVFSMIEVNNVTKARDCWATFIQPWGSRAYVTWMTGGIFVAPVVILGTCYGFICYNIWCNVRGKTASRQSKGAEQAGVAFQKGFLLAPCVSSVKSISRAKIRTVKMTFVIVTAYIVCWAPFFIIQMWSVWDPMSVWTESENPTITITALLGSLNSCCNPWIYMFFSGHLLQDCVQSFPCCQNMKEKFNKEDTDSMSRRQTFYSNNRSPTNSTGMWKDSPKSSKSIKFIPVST
Description: as §3

rat hippocampal slices = assay: Electrophysiological assay of hippocampal slices, population spike (PS) recording
Description: All animals were housed and used in accordance with the French and European legislations for animal care. Rats (Janvier Labs, Le Genest-Saint-Isle, France) were euthanized by fast decapitation, without prior anesthesia. The brain was quickly removed and soaked in ice-cold oxygenated buffer containing KCl 2 mM, NaH2PO4 1.2 mM, MgCl2 7 mM, CaCl2 0.5 mM, NaHCO3 26 mM, glucose 11 mM, and sucrose 250 mM. […] During the experiments, slices were perfused with oxygenated artificial cerebrospinal fluid at 37 °C at a rate of 3 mL/min. The tested slice numbers were > 2 for 100 µM, > 4 for 10 µM, and > 6 for 1 µM (follow-up study). All experiments were carried out with 3-dimensional multielectrode array (Qwane Biosciences S.A., Lausanne, Switzerland) and data were recorded with a commercially available multielectrode array set-up from MultiChannel Systems (MCS GmbH, Reutlingen, Germany).
A hippocampal slice was placed on the multielectrode array (100 μm distant electrodes). One electrode was chosen to stimulate schaffer collaterals (SC) at the CA1 border. The stimulus in a monopolar biphasic current pulse (−300 μA for 60 μs followed by +300 μA for 60 μs) was applied at 30-s intervals. An Input/Output (I/O) curve was derived before each experiment to determine the stimulation intensity. Basal stimulation intensity was then set to 100 μA higher than the minimal intensity necessary to induce PS in the pyramidal cell layer.
Then, 1 μM bicuculline, the antagonist of GABAA, was applied in the continuous presence of the compound for an additional 40-min. Control bicuculline slices were recorded in parallel and after 50 min of control recording, 1 μM bicuculline was applied for a 40-min period.
Normalized PS AUC was averaged by slices for each experiment carried out in the same conditions. PS AUC (± SEM) is expressed as a function of time. The number of PS oscillations induced at the end of the bicuculline-exposure period was determined for each electrode and averaged by slices. The results are presented as mean of the last 2 min of application. Statistical significance was measured using two-way ANOVA analysis with Sidak’s multiple comparisons test, except for the 100 µM concentration because of its small slice number.

[2] = tested on: fundus isolated from guinea pig; assay: In vitro Magnus assay, stomach fundus; conditions: 100 µM; ± SEM; p < 0.01
Description: as §1, §2

rats = conditions: two years; cited from earlier work
mice = conditions: 96 weeks; cited from earlier work
[3] = 30 µM, Adrenergic α1A, read-out: % Inhibition
[4] = probe radioisotope-labeled high-affinity ligand (not named), 30 µM, Potassium Channel hERG, read-out: % Inhibition
[5] = 30 µM, Adrenergic α2A, read-out: % Inhibition
[6] = 30 µM, Adrenergic β2, read-out: % Inhibition
[7] = 30 µM, Vasopressin V1A, read-out: % Inhibition

For `O=C(/C=C/c1ccc(O)c(O)c1)O[C@H]1C[C@@](O)(C(=O)O)C[C@H](O)[C@@H]1O` [5-CQA, 5-O-caffeoylquinic acid], the “Tension in the ileum” value [1] was 0.293 ± 0.068 g, the inhibition at 30 µM (Adrenergic α1A; [3]) was 14% and the inhibition at 30 µM (hERG potassium channel; [4]) was 3%. The inhibition at 30 µM (Muscarinic M3) was 5%, the inhibition at 30 µM (Adrenergic α2A; [5]) was 5% and the inhibition at 30 µM (Adrenergic β2; [6]) was 1%. It also gave an inhibition at 30 µM (Vasopressin V1A; [7]) of 0%.
With `COc1cc(/C=C/C(=O)O)ccc1O` [FA, ferulic acid] the Additional spike number (rat hippocampal slices; follow-up test, 1 µM alone, single application period) was “did not trigger multiple spikes”, the inhibition at 30 µM (Adrenergic α1A) was -2% and the inhibition at 30 µM (hERG potassium channel; 30 µM, Potassium Channel hERG, read-out: % Inhibition) was 7%. The inhibition at 30 µM (Adrenergic α2A) was -2%, the inhibition at 30 µM (Adrenergic β2) was 2% and the inhibition at 30 µM (Vasopressin V1A) was 6%. The “Tension in the fundus” value [2] was 0.089 ± 0.005 g.
In the case of `O=C(O)/C=C/c1ccc(O)c(O)c1` [CA, caffeic acid], the “Safety pharmacological toxicity on chronic exposure” value (rats) is listed as “no safety pharmacological toxicity”, the “% Inhibition” value (Adrenergic α1A; 30 µM, Adrenergic α1A) is listed as 10% and the inhibition at 30 µM (hERG potassium channel) is listed as -19%. The “% Inhibition” value (Muscarinic M3; 30 µM) was −3%, the “% Inhibition” value (Adrenergic α2A; 30 µM, Adrenergic α2A) was −4% and the “% Inhibition” value (Adrenergic β2; 30 µM, Adrenergic β2) was 2%. For the same compound, the “% Inhibition” value (Vasopressin V1A; 30 µM, Vasopressin V1A) was 9% and the “Safety pharmacological toxicity on chronic exposure” value (mice) was “no safety pharmacological toxicity”.
In the case of `COc1cc(/C=C/C(=O)O[C@H]2C[C@@](O)(C(=O)O)C[C@H](O)[C@@H]2O)ccc1O` [5-FQA, 5-O-feruloylquinic acid], the Additional spike number (rat hippocampal slices; 10 μM compound, co-exposure with 1 μM bicuculline) is reported as “in the same range as the bicuculline control slices”, the inhibition at 30 µM (Adrenergic α1A; [3]) is reported as 10% and the inhibition at 30 µM (hERG potassium channel; [4]) is reported as 6%. For the same compound, the inhibition at 30 µM (Muscarinic M3) was 2%, the inhibition at 30 µM (Adrenergic α2A; [5]) was -3% and the inhibition at 30 µM (Adrenergic β2; [6]) was 6%. It also gave an inhibition at 30 µM (Vasopressin V1A; [7]) of 16%.
